According to publication PMC2074523, “Bioavailability and pharmacokinetics of oral topotecan: a new topoisomerase I inhibitor” (British Journal of Cancer, 1996):
Where “and” joins values, the source holds several entries; their conditions need not be identical. Equal entries are not always repeated. Structures can show the parent of a compound that is named as a salt. One block for each compound: values may come before it.

What was measured:
[1] = clinical; settings: for Vd: 1.5 mg m-2, volume of distribution at steady state (Vd,ss)
Excerpt: British Journal of Cancer (1996) 73, 1268-1271 ff* (C) 1996 Stockton Press All rights reserved 0007-0920/96 $12.00 Bioavailability and pharmacokinetics of oral topotecan: a new topoisomerase I inhibitor JHM Schellens', GJ Creemers', JH Beijnen2, H Rosing2, M de Boer-Dennert', M McDonald3, B Davies4 and J Verweij' 'Department of Medical Oncology, Rotterdam Cancer Institute, 3075 EA Rotterdam, The Netherlands; 2Slotervaart Hospital, Amsterdam, The Netherlands; 3SmithKline & Beecham, UK; 4SmithKline & Beecham, USA. […] The oral dose of 1.5 mg m 2 was administered as a drinking solution of 200 ml on day 1. The i.v. dose of 1.5 mg m-2 was administered as a 30 min continuous infusion on day 2. The bioavailability was calculated as the ratio of the oral to i.v. area under the curve (AUC) calculated up to the last measured time point. […] Keywords: topotecan; bioavailability; topoisomerase I inhibitor Topotecan (SKF 104864) [(S)-9-dimethylaminomethyl-10- hydroxycamptothecin hydrochloride] is a semisynthetic water-soluble analogue of camptothecin (Hsiang and Liu, 1988). Like camptothecin, topotecan is a specific inhibitor of topoisomerase I (Hsiang and Liu, 1988). Topotecan incorporates a stable basic side-chain at the 9-position of the A-ring, which provides water solubility at acid pH. Topotecan is converted to its lactone ring-opened hydrolysis product (hydroxy acid), which reversible pathway is strongly pH dependent. The biological activity of the hydroxy acid has not been fully elucidated (Kingsbury et al., 1991). […] In the present study the bioavailability and pharmacoki- netics of oral topotecan are explored in patients with solid tumours with the aim of providing a basis for further development of clinical studies using chronic oral topotecan. […] The performance status had to be < 2 on the WHO scale and life expectancy >3 months. The minimum age was 18 and maximum age 75 years. The haemoglobulin had to be >6.0 mmol 1 -1 (9 g dl-'), WBC? 3500 ul -', granulocytes , 1000 l-d and platelets >100 000 jil-'. The serum creatinine had to be < 140 imol 1-1 (1.6 mg dl-'), the serum bilirubin <26 µmol 1` (1.5 mg dl-') and alkaline phospha- tase and transaminases <2 times the upper normal limit if liver metastases were absent or -5 times the upper normal limit if liver metastases were present. Topotecan was administered orally and intravenously at a dose of 1.5 mg m-2. Topotecan as supplied for intravenous infusion was diluted for oral dosage. […] The dose was placed in a beaker containing 100 ml of 5% dextrose injection solution. On day 1, patients were asked to drink the entire contents. Subsequently, an additional 100 ml of 5% dextrose injection solution was added to the beaker and taken by the patient. On day 2 topotecan was administered at the same dose as a continuous 30 min intravenous infusion.

[2] = Acute tolerability of oral drinking solution and i.v. infusion of topotecan in patients; format: in vivo, human
Excerpt: British Journal of Cancer (1996) 73, 1268-1271 ff* (C) 1996 Stockton Press All rights reserved 0007-0920/96 $12.00 Bioavailability and pharmacokinetics of oral topotecan: a new topoisomerase I inhibitor JHM Schellens', GJ Creemers', JH Beijnen2, H Rosing2, M de Boer-Dennert', M McDonald3, B Davies4 and J Verweij' 'Department of Medical Oncology, Rotterdam Cancer Institute, 3075 EA Rotterdam, The Netherlands; 2Slotervaart Hospital, Amsterdam, The Netherlands; 3SmithKline & Beecham, UK; 4SmithKline & Beecham, USA. […] The oral dose of 1.5 mg m 2 was administered as a drinking solution of 200 ml on day 1. The i.v. dose of 1.5 mg m-2 was administered as a 30 min continuous infusion on day 2. The bioavailability was calculated as the ratio of the oral to i.v. area under the curve (AUC) calculated up to the last measured time point. […] Keywords: topotecan; bioavailability; topoisomerase I inhibitor Topotecan (SKF 104864) [(S)-9-dimethylaminomethyl-10- hydroxycamptothecin hydrochloride] is a semisynthetic water-soluble analogue of camptothecin (Hsiang and Liu, 1988). Like camptothecin, topotecan is a specific inhibitor of topoisomerase I (Hsiang and Liu, 1988). Topotecan incorporates a stable basic side-chain at the 9-position of the A-ring, which provides water solubility at acid pH. […]

[3] = set-up: method as in unpublished data; settings: mean (s.d. 16.3), ref unpublished data; cited from earlier work
[4] = Table I, patients 1-12 in order, oral 1.5 mg m-2

plasma concentration-time curves of the hydroxy acid compared with topotecan ([1]; human, in vivo): higher than those of topotecan
ratio of the AUC(t) of the hydroxy acid after oral and i.v. administration ([1]; human, in vivo): 0.38 ± 0.12
Cmax of the hydroxy acid ([1]; human, in vivo, iv): 18.97 ± 2.44 ng/mL
terminal t1/2 of the hydroxy acid ([1]; human, in vivo, iv): 3.22 ± 0.73 h
AUC(t) of hydroxy acid, i.v. ([1]; human, in vivo, iv, 1.5 mg): 73.25 ng/h/mL
Cmax of the hydroxy acid ([1]; human, in vivo, po): 7.50 ± 2.57 ng/mL
Cmax of the hydroxy acid, range ([1]; human, in vivo, po): 4.66 + 12.32 ng ml-1
plasma concentration on day 2, before administration of the second dose ([1]; human, in vivo, po): undetectable
terminal t1/2 of the hydroxy acid ([1]; human, in vivo, po): 2.82 ± 0.85 h
AUC(t) of hydroxy acid, oral ([1]; human, in vivo, po, 1.5 mg): 31.41 ng/h/mL
Compound: CC[C@@](O)(C(=O)O)c1cc2n(c(=O)c1CO)Cc1cc3c(CN(C)C)c(O)ccc3nc1-2 [hydroxy acid]

plasma concentration on day 2, before administration of the second dose ([1]; day after oral dose 1.5 mg m-2, LLQ 0.1 ng ml-1): undetectable
Cmax ([1]; human, in vivo, iv, 1.5 mg, i.v. (individual patients)): 41.8 ng/mL
clearance ([1]; human, plasma, iv, 1.5 mg): 535 to 1070 mL/min
clearance ([1]; human, plasma, iv, 1.5 mg m-2): 824 ± 154 mL/min
half-life ([1]; human, plasma, iv, 1.5 mg m-2, half-life for the initial decline of the plasma concentration-time curve (t1/2 alpha), mean ± s.d., ten patients fitted with a biexponential model): 0.186 h
half-life ([1]; human, plasma, iv, 1.5 mg m-2, t1/2 beta, after i.v., the patient with the highest bioavailability of 45%): 1.8 h
half-life ([1]; human, plasma, iv, 1.5 mg m-2, t1/2 beta, mean ± s.d., n=12): 2.4 h
half-life ([1]; human, plasma, iv, 1.5 mg m-2, t1/2 beta, range, n=12): 1.72 to 2.93 h
Vd ([1]; human, plasma, iv, mean ± s.d., n=12): 128 L
Vd ([1]; human, plasma, iv, range, n=12): 86 to 231 L
Cmax ([1]; human, plasma, iv, 1.5 mg, mean of 12 patients, i.v. 1.5 mg m-2): 37.8 ng/mL
Tmax ([1]; human, plasma, po, 1.5 mg m-2, Tmax, range of the other 11 patients, without the patient with Tmax 2.5 h): 0.33 to 1.5 h
half-life ([1]; human, plasma, po, 1.5 mg m-2, t1/2 beta, after oral administration, the patient with the highest bioavailability of 45%): 3.2 h
half-life ([1]; human, plasma, po, 1.5 mg m-2, t1/2 beta, mean, n=10): 2.43 h
half-life ([1]; human, plasma, po, 1.5 mg m-2, t1/2 beta, range, n=10): 1.02 to 3.2 h
Cmax ([1]; human, plasma, po, 1.5 mg, mean of 12 patients, oral 1.5 mg m-2): 5.88 ng/mL
Cmax ([1]; human, plasma, po, 1.5 mg, oral (individual patients), Table I, patients 1-12 in order, oral 1.5 mg m-2): 5.95 ng/mL
Tmax ([1]; human, plasma, po, 1.5 mg, time to maximum plasma concentration (Tmax), median, oral 1.5 mg m-2, 12 patients): 0.78 h
Tmax ([1]; human, plasma, po, 1.5 mg, time to maximum plasma concentration (Tmax), range, oral 1.5 mg m-2, 12 patients): 0.33 to 2.5 h
AUC(t), range ([1]; i.v. 1.5 mg m-2): 32.50 to 73.68 ng/h/mL
AUCoo, range ([1]; i.v. 1.5 mg m-2): 43.70 to 81.08 ng/h/mL
bioavailability (ratio of oral to i.v. AUC(t)) ([1]; mean (s.d. 7.7), oral drinking solution 1.5 mg m-2 day 1 vs 30 min i.v. infusion 1.5 mg m-2 day 2, 12 patients): 30%
bioavailability if curves extrapolated to infinity (AUCoo) ([1]; mean (s.d. 11.5), oral vs i.v. 1.5 mg m-2): 32%
AUC(t) ([1]; mean ± s.d., i.v. 1.5 mg m-2): 49.87 ± 10.87 ng/h/mL
total plasma clearance (Cl) ([1]; mean ± s.d., i.v. 1.5 mg m-2 30 min infusion, n=12): 824+ 154 ml min-1
AUCoo ([1]; mean ± s.d., i.v. 1.5 mg m-2, extrapolated to infinity): 61.02 ± 10.57 ng/h/mL
AUC(t) ([1]; mean ± s.d., oral 1.5 mg m-2, up to latest measured time point): 15.18 ± 5.51 ng/h/mL
AUC(t), range ([1]; oral 1.5 mg m-2): 9.38 to 25.37 ng/h/mL
bioavailability (ratio of oral to i.v. AUC(t)), range ([1]; range over 12 patients, oral vs i.v. 1.5 mg m-2): 21-45%
Compound: CC[C@@]1(O)C(=O)OCc2c1cc1n(c2=O)Cc2cc3c(CN(C)C)c(O)ccc3nc2-1 [topotecan, (S)-9-dimethylaminomethyl-10-hydroxycamptothecin hydrochloride]
acute side-effects ([2]; i.v. and oral 1.5 mg m-2, 12 patients): Neither i.v. nor oral administration was associated with any significant acute side-effect
tolerability of the oral drinking solution ([2]; oral 1.5 mg m-2 in 200 ml, 12 patients): well tolerated
Cmax, i.v. (individual patients) ([1]; Table I, patients 1-12 in order, i.v. 1.5 mg m-2): 41.08 ng/mL and 35.92 ng/mL and 43.86 ng/mL and 33.40 ng/mL and 47.18 ng/mL and 40.35 ng/mL and 41.41 ng/mL and 41.21 ng/mL and 42.11 ng/mL and 25.35 ng/mL and 19.57 ng/mL
Cmax, oral (individual patients) [1, 4]: 5.93 ng/mL and 5.16 ng/mL and 5.45 ng/mL and 5.71 ng/mL and 7.14 ng/mL and 4.71 ng/mL and 5.08 ng/mL and 6.48 ng/mL and 6.67 ng/mL and 5.38 ng/mL and 6.93 ng/mL
Tmax, oral (individual patients) [1, 4]: 0.5 h (3×) and 1.03 h (2×) and 0.33 h and 1.13 h and 0.52 h and 0.55 h and 2.5 h and 1.5 h and 1.0 h
F (individual patients) ([1]; Table I, patients 1-12 in order, ratio AUC(t) oral/i.v.): 21% and 30% (2×) and 25% and 38% and 23% (2×) and 22% and 45% and 34% and 35% and 36%
bioavailability after oral administration in dogs [3]: 35.7%
